In the NIST ThermoML archive (doi:10.1021/je034254m):

Experiment: excess molar enthalpy (molar enthalpy of mixing); xn = mol fraction of the nth substance listed
Conditions: Liquid, Flow calorimetry

CN1CCCC1=O [N-methylpyrrolidone] + CO
393.15 K, 1790 kPa
Conditions	excess molar enthalpy [kcal/mol]
x2 = 0.0576	-0.0354
x2 = 0.1114	-0.0657
x2 = 0.2093	-0.113
x2 = 0.2959	-0.146
x2 = 0.3732	-0.168
x2 = 0.4425	-0.18
x2 = 0.5051	-0.184
x2 = 0.5619	-0.183
x2 = 0.6136	-0.177
x2 = 0.6609	-0.167
x2 = 0.7043	-0.157
x2 = 0.7443	-0.143
x2 = 0.7813	-0.128
x2 = 0.8156	-0.113
x2 = 0.8475	-0.0968
x2 = 0.8772	-0.0817
x2 = 0.905	-0.0652
x2 = 0.931	-0.0488
x2 = 0.9554	-0.0323
x2 = 0.9784	-0.016
x2 = 0.9893	-0.00837

O=S1(=O)CCCC1 [sulfolane] + O
413.15 K, 1820 kPa
Conditions	excess molar enthalpy [kcal/mol]
x2 = 0.0621	0.0968
x2 = 0.1183	0.17
x2 = 0.2159	0.284
x2 = 0.3676	0.405
x2 = 0.48	0.443
x2 = 0.5667	0.445
x2 = 0.6355	0.428
x2 = 0.6915	0.401
x2 = 0.738	0.37
x2 = 0.7772	0.337
x2 = 0.8395	0.272
x2 = 0.8648	0.241
x2 = 0.887	0.211
x2 = 0.9067	0.181
x2 = 0.9243	0.152
x2 = 0.9401	0.125
x2 = 0.9544	0.0985
x2 = 0.9674	0.0727
x2 = 0.9792	0.0476
x2 = 0.99	0.0232
